Source: patent US11254663B2 (BRISTOL-MYERS SQUIBB COMPANY, priority 2019, dated 2022)
Like-named read-outs stand apart in the source and are kept apart here.

Biological target: FXR (Homo sapiens (Human), UniProt Q96RI1)
Assay: transient human FXR/Gal4-luciferase reporter assay
Assay type: cell-based
How it was run: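 HEK293 cells stably carrying a 5×Gal4 response element–firefly luciferase reporter were transiently transfected overnight with a Gal4 DBD–human FXR LBD fusion plasmid. Compound was added in DMSO and cells were incubated overnight at 37 °C, 5% CO2. Activity was read as Steady-Glo luminescence.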

[1] = Gal4-hFXR fusion construct, HEK293 reporter cells, response relative to 8 μM GW-4064

FXR, sequence (Q96RI1 262-486): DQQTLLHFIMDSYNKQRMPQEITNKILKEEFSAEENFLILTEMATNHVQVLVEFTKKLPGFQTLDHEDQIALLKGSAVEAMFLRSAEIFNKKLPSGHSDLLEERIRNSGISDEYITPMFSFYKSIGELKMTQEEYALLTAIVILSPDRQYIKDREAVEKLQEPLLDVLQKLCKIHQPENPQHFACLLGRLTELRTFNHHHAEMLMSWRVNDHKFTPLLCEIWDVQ

| SMILES | EC50 [1] | EC50 |
| --- | --- | --- |
| CC(C)(C)c1nc(C23CCC(CN(C(=O)C45CC(F)(C4)C5)c4cccc(-c5ccc6[nH]c(=O)oc6c5)c4)(CC2)CC3)no1 [Example 447, N-((4-(5-(tert-butyl)-1,2,4-oxadiazol-3-yl)bicyclo[2.2.2]octan-1-yl)methyl)-3-fluoro-N-(3-(2-oxo-2,3-dihydrobenzo[d]oxazol-6-yl)phenyl)bicyclo[1.1.1]pentane-1-carboxamide] | 87 nM |  |
| CC(C)(O)CN1CC=C(c2cccc(N(CC34CCC(c5noc(C(C)(C)F)n5)(CC3)CC4)C(=O)C34CC(F)(C3)C4)c2)CC1 [Example 663, 3-fluoro-N-((4-(5-(2-fluoropropan-2-yl)-1,2,4-oxadiazol-3-yl)bicyclo[2.2.2]octan-1-yl)methyl)-N-(3-(1-(2-hydroxy-2-methylpropyl)-1,2,3,6-tetrahydropyridin-4-yl)phenyl) bicyclo[1.1.1]pentane-1-carboxamide] | 159 nM |  |
| O=C(N(CC12CCC(c3noc(C(F)F)n3)(CC1)CC2)c1cccc(-c2cnc(C(F)(F)F)nc2)c1)C12CC(F)(C1)C2 [Example 464, N-((4-(5-(difluoromethyl)-1,2,4-oxadiazol-3-yl)bicyclo[2.2.2]octan-1-yl)methyl)-3-fluoro-N-(3-(2-(trifluoromethyl)pyrimidin-5-yl)phenyl)bicyclo[1.1.1]pentane-1-carboxamide] |  | 654 nM |
| O=C(N(CC12CCC(c3noc(C(F)(F)F)n3)(CC1)CC2)c1cccc(-c2cnc(C3CC3)nc2)c1)C12CC(F)(C1)C2 [Example 580, N-(3-(2-cyclopropylpyrimidin-5-yl)phenyl)-3-fluoro-N-((4-(5-(trifluoromethyl)-1,2,4-oxadiazol-3-yl)bicyclo[2.2.2]octan-1-yl)methyl)bicyclo[1.1.1]pentane-1-carboxamide] | 160 nM |  |
| CC(C)(C)c1nc(C23CCC(CN(C(=O)C45CC(F)(C4)C5)c4cncc(-c5ncc(OC(F)F)cn5)c4)(CC2)CC3)no1 [Example 485, N-((4-(5-(tert-butyl)-1,2,4-oxadiazol-3-yl)bicyclo[2.2.2]octan-1-yl)methyl)-N-(5-(5-(difluoromethoxy)pyrimidin-2-yl)pyridin-3-yl)-3-fluorobicyclo[1.1.1]pentane-1-carboxamide] | 41 nM |  |
| Cc1cc(-c2cccc(N(CC34CCC(c5nc(C6CC6)no5)(CC3)CC4)C(=O)C34CC(F)(C3)C4)c2)cn2ncnc12 [Example 266, N-((4-(3-cyclopropyl-1,2,4-oxadiazol-5-yl)bicyclo[2.2.2]octan-1-yl)methyl)-3-fluoro-N-(3-(8-methyl-[1,2,4]triazolo[1,5-a]pyridin-6-yl)phenyl)bicyclo[1.1.1]pentane-1-carboxamide] | 691 nM |  |
| COc1cc(-c2cccc(N(CC34CCC(c5nnc(C)s5)(CC3)CC4)C(=O)C34CC(F)(C3)C4)c2)ccn1 [Example 232, 3-Fluoro-N-(3-(2-methoxypyridin-4-yl)phenyl)-N-((4-(5-methyl-1,3,4-thiadiazol-2-yl)bicyclo[2.2.2]octan-1-yl)methyl)bicyclo[1.1.1]pentane-1-carboxamide] | 465 nM |  |
| CC(C)(F)c1nc(C23CCC(CN(c4cccc(C5=CCOCC5)c4)C(=O)[C@H]4C[C@](O)(C(F)(F)F)C4)(CC2)CC3)no1 [Example 588, (cis)-N-(3-(3,6-dihydro-2H-pyran-4-yl)phenyl)-N-((4-(5-(2-fluoropropan-2-yl)-1,2,4-oxadiazol-3-yl)bicyclo[2.2.2]octan-1-yl)methyl)-3-hydroxy-3-(trifluoromethyl) cyclobutane-1-carboxamide] | 395 nM |  |
| CC(C)(O)c1ccc(-c2cccc(N(CC34CCC(c5noc(C(C)(C)F)n5)(CC3)CC4)C(=O)[C@H]3C[C@](O)(C(F)(F)F)C3)c2)nn1 [Example 593, (cis)-N-((4-(5-(2-fluoropropan-2-yl)-1,2,4-oxadiazol-3-yl)bicyclo[2.2.2]octan-1-yl)methyl)-3-hydroxy-N-(3-(6-(2-hydroxypropan-2-yl)pyridazin-3-yl)phenyl)-3-(trifluoromethyl)cyclobutane-1-carboxamide] | 566 nM |  |
| CC(C)(F)c1nc(C23CCC(CN(C(=O)O[C@H]4C[C@](O)(C(F)(F)F)C4)c4cc(-c5ccc(OC(F)F)cc5)c(F)cn4)(CC2)CC3)no1 [Example 629, (cis)-3-hydroxy-3-(trifluoromethyl)cyclobutyl (4-(4-(difluoromethoxy)phenyl)-5-fluoropyridin-2-yl)((4-(5-(2-fluoropropan-2-yl)-1,2,4-oxadiazol-3-yl)bicyclo[2.2.2]octan-1-yl)methyl)carbamate] | 99 nM |  |
| COc1ccc(-c2cccc(N(CC34CCC(c5nc(C6CC6)no5)(CC3)CC4)C(=O)C34CC(F)(C3)C4)c2)cc1OC [Example 301, N-((4-(3-cyclopropyl-1,2,4-oxadiazol-5-yl)bicyclo[2.2.2]octan-1-yl)methyl)-N-(3′,4′-dimethoxy-[1,1′-biphenyl]-3-yl)-3-fluorobicyclo[1.1.1]pentane-1-carboxamide] | 519 nM |  |
| CCOc1ccc(-c2cccc(N(CC34CCC(c5cnc(C(F)(F)F)nc5)(CC3)OC4)C(=O)C34CC(F)(C3)C4)c2)cc1 [Example 422, N-(4′-ethoxy-[1,1′-biphenyl]-3-yl)-3-fluoro-N-((1-(2-(trifluoromethyl)pyrimidin-5-yl)-2-oxabicyclo[2.2.2]octan-4-yl)methyl)bicyclo[1.1.1]pentane-1-carboxamide] | 1520 nM |  |
| CC(C)(C)c1nc(C23CCC(CN(C(=O)C45CC(F)(C4)C5)c4cccc(-c5ccc(C(F)(F)F)cc5)c4)(CC2)CC3)no1 [Example 445, N-((4-(5-(tert-butyl)-1,2,4-oxadiazol-3-yl)bicyclo[2.2.2]octan-1-yl)methyl)-3-fluoro-N-(4′-(trifluoromethyl)-[1,1′-biphenyl]-3-yl)bicyclo[1.1.1]pentane-1-carboxamide] | 719 nM |  |
| Cc1nc2c(C(F)(F)F)cc(-c3cccc(N(CC45CCC(c6nc(C7CC7)no6)(CC4)CC5)C(=O)C45CC(F)(C4)C5)c3)cn2n1 [Example 321, N-((4-(3-cyclopropyl-1,2,4-oxadiazol-5-yl)bicyclo[2.2.2]octan-1-yl)methyl)-3-fluoro-N-(3-(2-methyl-8-(trifluoromethyl)-[1,2,4]triazolo[1,5-a]pyridin-6-yl)phenyl) bicyclo[1.1.1]pentane-1-carboxamide] | 1460 nM |  |
| O=C(N(CC12CCC(c3nc(C4CC4)no3)(CC1)CC2)c1cccc(-c2ccc(NS(=O)(=O)C3CC3)cc2)c1)C12CC(F)(C1)C2 [Example 269, N-(4′-(cyclopropanesulfonamido)-[1,1′-biphenyl]-3-yl)-N-((4-(3-cyclopropyl-1,2,4-oxadiazol-5-yl)bicyclo[2.2.2]octan-1-yl)methyl)-3-fluorobicyclo[1.1.1]pentane-1-carboxamide] | 142 nM |  |
| CCOc1ncc(-c2cccc(N(CC34CCC(c5noc(C(C)(C)C)n5)(CC3)CC4)C(=O)C3CC(O)(C(F)(F)F)C3)c2)cn1 [Example 509, (1S,3S)—N-((4-(5-(tert-butyl)-1,2,4-oxadiazol-3-yl)bicyclo[2.2.2]octan-1-yl)methyl)-N-(3-(2-ethoxypyrimidin-5-yl)phenyl)-3-hydroxy-3-(trifluoromethyl)cyclobutane-1-carboxamide] |  | 230 nM |
